These results are taken from PMC12195250, “Synthesis, Biological Evaluation, Molecular Dynamics, and QM-MM Calculation of Spiro-Acridine Derivatives Against Leishmaniasis” (Microorganisms, 2025).

Converted amounts (≈) assume the structure as drawn. Like-named read-outs stand apart in the source and are kept apart here.

Series [1] deals with human red blood peripheral cells (O+). Put plainly: Hemocompatibility (hemolysis) in red blood cells. It is filed as cell-based. The conditions noted are these: 1 h at 37 °C. As for the experimental part: The hemocompatibility of the spiro-acridine derivatives was determined using human red blood peripheral cells (O+) from healthy adults. The erythrocytes were diluted in phosphate-buffered saline (PBS) to a concentration of 5% in an 80 µL suspension and subsequently incubated with 20 µL of different concentrations of spiro-acridine derivatives and Amphotericin B® (400, 200, 100, 50, 25, 12,5, 6,25 and 3,12 μg/mL). Afterward, the samples were incubated for 1 h at 37 °C in a B.O.D incubator, and the reaction was stopped by adding 200 μL of PBS (1.5 mM KH2PO4, 8.1 mM Na2HPO4, 136.9 mM NaCl, and 2.6 mM KCl, pH 7.2). The samples were centrifuged at 2000 rpm for 10 min, at room temperature. The supernatants were collected and subjected to spectrophotometry using a spectrophotometer (model Biosystems ELx800, Curitiba, PR, Brazil) at 540 nm. The hemolysis percentage was determined as [(Abssam − Abscon)/(Abstot − Abscon) × 100], where Abssam refers to the absorbance of the sample, Abscon to the absorbance of the blank control (without compounds), and Abstot to the absorbance of total hemolysis (obtained by replacing the sample solution with an equal volume of Milli-Q water). The results were expressed as average hemolytic concentration (HC50), considering the positive control as 100% hemolysis.

The subject of series [2] is L. amazonensis promastigotes (Strain MHOM/BR/PH8). As to the kind of experiment: Anti-promastigote effect, Neubauer chamber counting. It is filed as cell-based, Leishmania amazonensis. The conditions noted are these: 72 h incubation, read-out: L. amazonensis IC50PRO. As for the experimental part: (§1) The promastigote cultures of L. infantum (Strain MHOM/BR/70/BH46) and L. amazonensis (Strain MHOM/BR/PH8) were kept in Schneider medium (Sigma-Aldrich, St. Louis, MO, USA) supplemented with 20% fetal bovine serum (FBS) and 1% streptomycin/penicillin in a B.O.D. incubator (J. Prolab, model JP. 100 LBCM/CPAM) at 26 °C. The promastigote strains were used in the exponential growth phase in all stages for experimental purposes.
(§2) The Neubauer chamber method was used to assess the inhibitory concentrations of the synthesized spiro-acridines capable of eliminating 50% of the promastigotes in cultures of L. amazonensis and L. infantum (IC50) strains. Promastigotes from both species were collected, counted, and diluted in Schneider’s medium (Sigma-Aldrich, St. Louis, MO, USA) supplemented with 20% fetal bovine serum (FBS) at a final concentration of 1 × 10^6 cells/mL. The evaluated promastigotes were then exposed to different concentrations of the tested compounds (10, 5, 2.5, 1.25, and 0.625 μg/mL). The positive control used the commercial drug Amphotericin B®, while the negative control consisted of promastigotes incubated in Schneider’s medium alone. After 72 h of incubation at 25 °C, culture growth was observed by counting the viable cells using a Neubauer chamber and calculated using the following Equation (1): No. Leishmania/mL = No. of cells counted × No. of Neubauer chamber(1) quadrants × the dilution used × 10^4 (Neubauer chamber correction factor)
(§3) The concentration parameter that inhibits 50% of parasite growth (IC50) was used to estimate the growth inhibition of the promastigote species of Leishmania sp. Thus, IC50 was determined by linear regression analysis with SPSS 8.0 software for Windows. Each test was performed in two independent experiments, with different cultures and in technical triplicate.

Series [3] has as its system L. infantum promastigotes (Strain MHOM/BR/70/BH46). The description is as above. In kind it is cell-based, Leishmania infantum. The conditions noted are these: 72 h incubation, read-out: L. infantum IC50PRO. The method, then: as §1, §2, §3
Series [4] relates to L. amazonensis promastigotes. On the set-up: method as in PMID 33765552. The conditions noted are these: cited from earlier work.
For series [5], the system named is L. brasiliensis promastigotes. Also on record: method as in PMID 33168414. The conditions noted are these: cited from earlier work.
Series [6] deals with L. brasiliensis axenic amastigotes. On the set-up: method as in PMID 33168414. The settings on record: cited from earlier work.
Series [7] has as its system L. amazonensis axenic amastigotes. As to the kind of experiment: Anti-amastigote effect on axenic amastigotes, MTT. It is filed as cell-based, Leishmania amazonensis. The method, then: The amastigote forms of L. amazonensis were maintained under cryopreservation until they were transferred to an NNN medium (Novy–MacNeal–Nicolle) and incubated at 26 °C until the parasites reached the log growth phase. Subsequently, the suspension was transferred to Schneider culture medium (Sigma-Aldrich, St. Louis, MO, USA), supplemented with 20% inactivated fetal bovine serum and 0.2% gentamicin sulfate at 26 °C, causing the parasites to return to the log growth phase. The cultures were then maintained at 37 °C, producing a growth curve and the formation of the axenic amastigote strains.
The concentrations of the compounds AMTAC-02 and ACMD-03 capable of eliminating 50% of the cells in the cultures of L. amazonensis amastigotes (IC50) were determined using the MTT [3-(4,5-dimethylthiazol-2-yl)-2,5-diphenyltetrazolium bromide] (Sigma-Aldrich) reagent. In a 96-well plate, the assay was initiated by diluting both compounds to concentrations of 2, 4, 8, 16, and 32 μg/mL and 2.0 × 10^5 axenic amastigotes per well. The plates were incubated at 37 °C for 24 h. Then, 10 μL of MTT was added per well, and the cultures were re-incubated for 4 h. Subsequently, 50 μL of dimethyl sulfoxide was added to each well to solubilize the formazan crystals formed. The absorbances were measured using a SpectraMAX GeminiXS plate spectrophotometer (Molecular Devices LLC) at a wavelength of 570 nm. The negative control consisted of untreated cells, while the positive control was assessed by incubating the axenic amastigotes with the reference drug Amphotericin B® [13].

The nature of series [8]: Cytotoxic effect in J774 macrophage cultures, MTT. In kind it is cell-based. The conditions noted are these: mouse, J774A.1 macrophages, read-out: CC50 (50% cytotoxic concentration in J774 macrophage). The method, then:
J774A.1 macrophages (ATCC TIB-67) were kept cryopreserved in a Falcon tube containing 5 mL of DMEM (Dulbecco’s modified Eagle medium) culture medium (Gibco®), supplemented with 10% inactivated fetal bovine serum, 1% non-essential amino acids, and 1% gentamicin sulfate. The tube was centrifuged at 200 rpm for 10 min. Afterward, the supernatant was discarded, and the cells were resuspended in the culture medium and transferred to a culture bottle kept in an incubator at 37 °C with 5% CO2. The assays were carried out in triplicate using a 96-well plate to evaluate the cytotoxic effect of the selected spiro-acridine compounds on J774 macrophage cultures. The compounds were diluted and seeded at predetermined concentrations (32, 16, 8, 4, and 2 μg/mL), parallel to the distribution of 1.0 × 10^5 J774 macrophages per well. The plate was incubated for two hours in a 5% CO2 incubator at 37 °C. Only the cells were incubated in the negative control without the tested molecules. In contrast, the positive control was performed by incubating the macrophages with the commercial drug Amphotericin B®. Later, 10 μL of the MTT reagent was added per well, and the cultures were re-incubated for 4 h. Finally, 50 μL of DMSO was added to each well, and the absorbance was read on a SpectraMAX GeminiXS plate spectrophotometer (Molecular Devices LLC, San Jose, CA, USA) at a wavelength of 570 nm. […]

Series [9] has as its system L. infantum promastigote forms. Also on record: method as in PMID 34311084. The settings on record: cited from earlier work.

In the case of `N#CC1=CC2(c3ccccc3Nc3ccccc32)N(/N=C/c2ccc(Cl)cc2)C1=O` [AMTAC-06, (E)1-(4-chlorobenzylideneamino)-5-oxo-1,5-dihydro-10H-spiro[acridine-9,2-pyrrole]-4-carbonitrile], the “HC50 (concentration capable of promoting 50% hemolysis)” value in series [1] is on record as >400 µM. The IC50 is 0.75 µM in [2] and 13.8 µM in [3].
With `CC1=CC(=O)[C@H]2C(C)(C)CCC[C@]2(C)[C@@]1(O)CCc1ccoc1` [SOL, solidagenone], the IC50 in [4] is 34.5 µM.
Turning to cordiaquinone E [CORe], the IC50 is 4.5 ± 0.3 µM in series [5] and 2.89 ± 0.11 µM in series [6].
In the case of `C[C@@H]1[C@H](O)[C@@H](C)/C=C/C=C/C=C/C=C/C=C/C=C/C=C/[C@H](O[C@@H]2O[C@H](C)[C@@H](O)[C@H](N)[C@@H]2O)C[C@@H]2O[C@](O)(C[C@@H](O)C[C@@H](O)[C@H](O)CC[C@@H](O)C[C@@H](O)CC(=O)O[C@H]1C)C[C@H](O)[C@H]2C(=O)O` [ANFO B, Amphotericin B, reference compound], the “SI (selectivity index)” value in series [7] (J774 macrophage CC50 versus L. amazonensis axenic amastigote IC50AMA) was found to be 2.8. In addition, the IC50 in series [7] (Leishmania amazonensis, 24 h, L. amazonensis axenic amastigotes, MTT) was 1.08 µM; in series [2] (Leishmania amazonensis), 1.53 µM; in series [3] (Leishmania infantum) it was 0.05 µM. Besides, the “HC50 (concentration capable of promoting 50% hemolysis)” value in [1] is reported as 24.25 µM. Besides, in series [8], the CC50 at 2 h turned out to be 3.09 µM.
With `COc1ccc(N2C(=O)C(C#N)=CC23c2ccccc2Nc2ccccc23)cc1` [ACMD-06, (E)1′-(4-methoxyphenyl)-5′-oxo-1′, 5′-dihydro-10H-spiro{acridine-9,2′-pyrrole]-4′-carbonitrile], in [1], the “HC50 (concentration capable of promoting 50% hemolysis)” value is >400 µM. Further, the IC50 in [2] is 235 µM; in series [3], 3.5 µM.
Consider `N#CC1=CC2(c3ccccc3Nc3ccccc32)N(c2ccccc2)C1=O` [ACMD-01, (E)5′-oxo-1′-phenyl-1′, 5′-dihydro-10H-spiro{acridine-9,2′-pyrrole]-4′-carbonitrile], for which the “HC50 (concentration capable of promoting 50% hemolysis)” value in [1] is >400 µM. Also, the IC50 in series [3] (Leishmania infantum) worked out at 3.9 µM.
For `N#CC1=CC2(c3ccccc3Nc3ccccc32)N(/N=C/c2ccccc2)C1=O` [AMTAC-01, (E)-1′-(benzylideneamino)-5′-oxo-1′,5′-dihydro-10H-spiro[acridine-9,2′-pyrrole]-4′-carbonitrile], the “HC50 (concentration capable of promoting 50% hemolysis)” value in series [1] was >400 µM. Also, in [9], the “IC50 against the promastigote forms” value was 2.039 µg/mL (≈ 5.42 µM). Also, the results for the IC50 in series [2] (Leishmania amazonensis) and in [3] (Leishmania infantum) were 1.23 µM and 6.27 µM, respectively.
